# Measurements taken from US9629861B2, “Compositions and methods for treating bacterial infections using ceftaroline” (Forest Laboratories Holdings Limited, priority 2009, dated 2017).
# Read-outs that look alike come from different tables or passages of the source.
# Assays:
# [1] = tested on: Community-Acquired Bacterial Pneumonia (CABP); assay: Two Phase 3 studies in CABP, integrated; format: in vivo, human; conditions: versus ceftriaxone, integrated CABP studies
# Procedure: (§1) In both treatment groups of CABP Study 1, two doses of oral clarithromycin (500 mg q12h), were administered as adjunctive therapy starting on Study Day 1. No adjunctive macrolide therapy was used in CABP Study 2. Patients with new or progressive pulmonary infiltrate(s) on chest radiography and clinical signs and symptoms consistent with CABP with the need for hospitalization and IV therapy were enrolled in the studies. Treatment duration was 5 to 7 days. A switch to oral therapy was not allowed. The Modified Intent-to-Treat Efficacy (MITTE) population included all patients who received any amount of study drug according to their randomized treatment group and were in PORT (Pneumonia Outcomes Research Team) Risk Class III or IV.
# (§2) The primary efficacy endpoint was the clinical response at the Test of Cure (TOC) visit in the co-primary CE and MITTE populations (Table 4). In a subgroup analysis (CE population), the comparative clinical cure rates between the ceftaroline group and the ceftriaxone group were not affected by age, gender, race, ethnicity, or weight.
# [2] = tested on: Community-Acquired Bacterial Pneumonia (CABP); assay: Phase 3 CABP Study 1 (Example 5, adjunctive clarithromycin); format: in vivo, human; conditions: versus ceftriaxone, CABP Study 1
# Procedure: as §1
# (§3) The primary efficacy endpoint was the clinical response at the Test of Cure (TOC) visit in the co-primary CE and MITTE populations (Table 4).
# (§4) The secondary objective of the study was to evaluate the following: the clinical response at end-of-therapy (EOT); the microbiological favorable outcome rate at TOC; the overall (clinical and radiographic) success rate at TOC; the clinical and microbiological response by pathogen at TOC; clinical relapse at late follow-up (LFU); microbiological reinfection/recurrence at LFU; and safety.
# (§5) The primary efficacy outcome measures were the per-subject clinical cure rate at TOC in the CE and MITTE Populations. Subjects were considered clinically cured at TOC if they had total resolution of all signs and symptoms of the baseline infection, or improvement of the infection such that no further antimicrobial therapy was necessary.
# (§6) Non-inferiority was concluded if the lower limit of the 95% CI was higher than −10%.
# [3] = tested on: Community-Acquired Bacterial Pneumonia (CABP); assay: Phase 3 CABP Study 2 (Example 4, no adjunctive macrolide); format: in vivo, human; conditions: for Treatment Difference in clinical cure rate at TOC: versus ceftriaxone, CABP Study 2
# Procedure: as §1, §3
# as §4, with “objectives” for “objective”, “were” for “was”, “following:” for “following: the”
# as §5, with “The following criteria were used for evaluation: The primary” for “The primary”, “rate at test-of-cure (TOC) in the” for “rate at TOC in the”
# as §6
# CYP1A2 [4] = molecular target: CYP1A2 (Homo sapiens, UniProt P05177); format: in vitro ADME; conditions: human liver microsomes
# Chain of CYP1A2 (Homo sapiens, UniProt P05177) (P05177 whole entry): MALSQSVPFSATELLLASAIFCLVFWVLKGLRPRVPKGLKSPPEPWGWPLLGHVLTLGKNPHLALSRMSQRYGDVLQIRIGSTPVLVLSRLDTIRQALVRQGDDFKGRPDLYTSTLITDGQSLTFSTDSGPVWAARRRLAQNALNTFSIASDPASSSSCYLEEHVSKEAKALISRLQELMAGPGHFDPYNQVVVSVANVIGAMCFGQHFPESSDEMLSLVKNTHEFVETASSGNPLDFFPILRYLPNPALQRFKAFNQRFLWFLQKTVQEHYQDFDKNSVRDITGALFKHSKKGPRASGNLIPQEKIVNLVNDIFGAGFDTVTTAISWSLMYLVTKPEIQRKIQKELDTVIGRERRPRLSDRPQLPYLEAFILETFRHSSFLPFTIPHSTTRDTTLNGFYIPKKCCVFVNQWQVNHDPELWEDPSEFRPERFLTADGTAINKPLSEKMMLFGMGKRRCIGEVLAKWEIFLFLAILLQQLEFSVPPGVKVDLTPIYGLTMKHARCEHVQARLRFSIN
# CYP2C19 [5] = molecular target: T1, CYP2C19 (Homo sapiens, UniProt P33261); assay: CYP inhibition in human liver microsomes; format: in vitro ADME
# T1 construct: In vitro studies in human liver microsomes; from tissue; host or cells: human liver microsomes
# T1 sequence (P33261 whole entry): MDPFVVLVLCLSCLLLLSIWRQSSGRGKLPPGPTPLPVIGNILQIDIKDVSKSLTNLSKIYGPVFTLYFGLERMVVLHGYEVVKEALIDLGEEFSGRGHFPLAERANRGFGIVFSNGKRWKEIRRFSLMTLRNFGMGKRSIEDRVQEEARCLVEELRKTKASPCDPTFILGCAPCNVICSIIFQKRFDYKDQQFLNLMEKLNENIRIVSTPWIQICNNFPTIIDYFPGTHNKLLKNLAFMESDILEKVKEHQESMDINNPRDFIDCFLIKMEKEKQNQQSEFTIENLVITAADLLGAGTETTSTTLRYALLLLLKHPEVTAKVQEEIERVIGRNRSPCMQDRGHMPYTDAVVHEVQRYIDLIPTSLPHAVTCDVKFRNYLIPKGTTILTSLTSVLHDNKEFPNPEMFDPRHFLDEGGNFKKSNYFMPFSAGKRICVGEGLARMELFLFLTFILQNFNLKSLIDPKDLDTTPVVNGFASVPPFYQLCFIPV
# CYP2C8 [6] = conditions: human hepatocytes
# CYP2C9 [7] = molecular target: T2, CYP2C9 (Homo sapiens, UniProt P11712); assay: CYP inhibition in human liver microsomes; format: in vitro ADME
# T2 construct: In vitro studies in human liver microsomes; from tissue; host or cells: human liver microsomes
# T2 sequence (P11712 whole entry): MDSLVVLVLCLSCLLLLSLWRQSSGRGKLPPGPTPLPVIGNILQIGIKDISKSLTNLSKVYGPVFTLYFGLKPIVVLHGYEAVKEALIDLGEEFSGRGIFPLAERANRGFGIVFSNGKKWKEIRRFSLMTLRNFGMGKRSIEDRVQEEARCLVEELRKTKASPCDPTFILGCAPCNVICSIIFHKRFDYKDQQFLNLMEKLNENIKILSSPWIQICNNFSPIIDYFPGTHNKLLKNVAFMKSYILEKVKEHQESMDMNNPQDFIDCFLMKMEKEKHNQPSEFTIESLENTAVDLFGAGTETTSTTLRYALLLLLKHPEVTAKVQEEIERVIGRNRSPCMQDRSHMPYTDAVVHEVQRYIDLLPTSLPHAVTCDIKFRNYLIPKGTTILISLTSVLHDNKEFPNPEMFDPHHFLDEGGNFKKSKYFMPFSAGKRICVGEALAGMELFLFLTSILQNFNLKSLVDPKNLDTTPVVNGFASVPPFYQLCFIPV
# CYP2C9 [8] = assay: CYP induction in human hepatocytes; format: in vitro ADME
# Aqueous solubility = format: physicochemical; conditions: with L-arginine, depending on the molarity of the solution
# Description: In further embodiments, the compositions may comprise L-arginine.
# CYP2C19 [9] = conditions: human hepatocytes
# CYP3A4/5 = assay: CYP induction in human hepatocytes; format: in vitro ADME
# CYP1A2 [10] = conditions: human hepatocytes
# CYP2D6 = molecular target: T3, CYP2D6 (Homo sapiens, UniProt P10635); assay: CYP inhibition in human liver microsomes; format: in vitro ADME
# T3 construct: In vitro studies in human liver microsomes; from tissue; host or cells: human liver microsomes
# T3 sequence (P10635 whole entry): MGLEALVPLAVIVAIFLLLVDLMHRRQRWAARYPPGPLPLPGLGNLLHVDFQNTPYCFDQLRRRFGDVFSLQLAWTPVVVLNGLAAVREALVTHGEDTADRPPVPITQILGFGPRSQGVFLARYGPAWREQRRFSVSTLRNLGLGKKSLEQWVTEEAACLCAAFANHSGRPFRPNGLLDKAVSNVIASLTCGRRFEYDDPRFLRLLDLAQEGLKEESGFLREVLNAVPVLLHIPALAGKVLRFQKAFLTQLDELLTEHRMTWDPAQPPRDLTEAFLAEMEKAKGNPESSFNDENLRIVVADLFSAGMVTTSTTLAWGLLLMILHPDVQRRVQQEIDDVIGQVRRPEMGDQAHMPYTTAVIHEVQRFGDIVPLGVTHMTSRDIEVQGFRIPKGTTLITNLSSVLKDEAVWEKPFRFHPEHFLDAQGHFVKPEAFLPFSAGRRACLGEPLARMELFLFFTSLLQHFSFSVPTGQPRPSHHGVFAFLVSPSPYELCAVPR
# CYP2C8 [11] = molecular target: T4, CYP2C8 (Homo sapiens, UniProt P10632); assay: CYP inhibition in human liver microsomes; format: in vitro ADME
# T4 construct: In vitro studies in human liver microsomes; from tissue; host or cells: human liver microsomes
# T4 sequence (P10632 whole entry): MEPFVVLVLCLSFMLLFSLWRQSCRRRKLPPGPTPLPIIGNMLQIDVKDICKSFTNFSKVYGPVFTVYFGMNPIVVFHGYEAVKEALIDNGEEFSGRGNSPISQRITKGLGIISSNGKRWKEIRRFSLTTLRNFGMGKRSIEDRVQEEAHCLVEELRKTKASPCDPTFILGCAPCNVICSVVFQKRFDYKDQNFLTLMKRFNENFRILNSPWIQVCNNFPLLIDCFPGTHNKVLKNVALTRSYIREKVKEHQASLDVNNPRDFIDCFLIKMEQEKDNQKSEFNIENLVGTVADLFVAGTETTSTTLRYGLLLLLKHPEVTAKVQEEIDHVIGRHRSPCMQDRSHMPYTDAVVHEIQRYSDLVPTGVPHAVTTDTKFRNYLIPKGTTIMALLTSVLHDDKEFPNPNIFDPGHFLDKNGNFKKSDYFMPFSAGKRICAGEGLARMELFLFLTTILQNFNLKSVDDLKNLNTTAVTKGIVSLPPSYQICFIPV
# [12] = tested on: complicated skin and skin structure infections (cSSSI); assay: Phase 3 cSSSI Study 2; format: in vivo, human; conditions: versus vancomycin/aztreonam
# Procedure: A total of 1396 adults with clinically documented complicated skin and skin structure infections (cSSSI) were enrolled in two randomized, multi-center, multinational, double-blind, studies comparing 600 mg ceftaroline fosamil administered intravenously over 1 hour every 12 hours to vancomycin plus aztreonam [1 g vancomycin administered intravenously over 1 hour followed by 1 g aztreonam administered intravenously over 1 hour every 12 hours]. Patients with cSSSI (deep/extensive cellulitis, a major abscess, a wound infection [surgical or traumatic], infected insect bites, burns or ulcers, lower extremity infection in patients with diabetes mellitus or peripheral vascular disease), were enrolled in the studies. Treatment duration was 5 to 14 days. A switch to oral therapy was not allowed. The Modified Intent-to-Treat (MITT) population included all patients who received any amount of study drug according to their randomized treatment group.
# as §2, with “was” for “was the”, “MITT” for “MITTE”, “2). […]” for “4).”, “vancomycin plus aztreonam” for “ceftriaxone”
# [13] = Pharmacokinetics of ceftaroline after IV infusion of ceftaroline fosamil in adults with normal renal function; design: species or system human; conditions: in vivo
# Description: The standard deviation is shown in brackets.
# CYP3A4 = molecular target: T5, CYP3A4 (Homo sapiens, UniProt P08684); assay: CYP inhibition in human liver microsomes; format: in vitro ADME
# T5 construct: In vitro studies in human liver microsomes; from tissue; host or cells: human liver microsomes
# T5 sequence (P08684 whole entry): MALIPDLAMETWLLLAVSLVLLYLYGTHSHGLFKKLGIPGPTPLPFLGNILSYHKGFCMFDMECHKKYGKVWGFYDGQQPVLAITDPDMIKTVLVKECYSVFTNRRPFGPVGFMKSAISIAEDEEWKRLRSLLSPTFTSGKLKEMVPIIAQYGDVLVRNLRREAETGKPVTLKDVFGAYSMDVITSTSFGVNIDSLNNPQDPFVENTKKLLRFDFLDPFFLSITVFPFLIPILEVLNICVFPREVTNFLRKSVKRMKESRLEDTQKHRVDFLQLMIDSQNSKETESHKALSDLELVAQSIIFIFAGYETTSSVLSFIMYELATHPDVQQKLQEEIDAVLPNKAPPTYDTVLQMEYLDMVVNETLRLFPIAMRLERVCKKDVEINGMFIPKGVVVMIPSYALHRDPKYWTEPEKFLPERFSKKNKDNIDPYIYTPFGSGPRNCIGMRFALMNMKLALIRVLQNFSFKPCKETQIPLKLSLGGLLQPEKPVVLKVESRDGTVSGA
# CYP2E1 = molecular target: T6, CYP2E1 (Homo sapiens, UniProt P05181); assay: CYP inhibition in human liver microsomes; format: in vitro ADME
# T6 construct: In vitro studies in human liver microsomes; from tissue; host or cells: human liver microsomes
# T6 sequence (P05181 whole entry): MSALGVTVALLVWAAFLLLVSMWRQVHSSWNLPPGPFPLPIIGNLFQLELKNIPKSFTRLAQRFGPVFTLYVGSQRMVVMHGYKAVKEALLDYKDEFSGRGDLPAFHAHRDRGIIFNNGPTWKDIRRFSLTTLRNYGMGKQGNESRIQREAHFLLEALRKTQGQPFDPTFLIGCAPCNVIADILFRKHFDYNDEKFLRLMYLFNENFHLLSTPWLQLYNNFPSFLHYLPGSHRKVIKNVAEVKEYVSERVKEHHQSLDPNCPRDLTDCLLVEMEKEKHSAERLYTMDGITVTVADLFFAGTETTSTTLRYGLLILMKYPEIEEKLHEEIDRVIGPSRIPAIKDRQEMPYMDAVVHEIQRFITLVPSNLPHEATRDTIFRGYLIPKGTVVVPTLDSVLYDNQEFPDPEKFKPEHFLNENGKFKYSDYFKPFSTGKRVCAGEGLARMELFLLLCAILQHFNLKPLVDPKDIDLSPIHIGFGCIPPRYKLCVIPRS
# CYP2B6 [14] = assay: CYP induction in human hepatocytes; format: in vitro ADME
# CYP1A1 = molecular target: T7, CYP1A1 (Homo sapiens, UniProt P04798); assay: CYP inhibition in human liver microsomes; format: in vitro ADME
# T7 construct: In vitro studies in human liver microsomes; from tissue; host or cells: human liver microsomes
# T7 sequence (P04798 whole entry): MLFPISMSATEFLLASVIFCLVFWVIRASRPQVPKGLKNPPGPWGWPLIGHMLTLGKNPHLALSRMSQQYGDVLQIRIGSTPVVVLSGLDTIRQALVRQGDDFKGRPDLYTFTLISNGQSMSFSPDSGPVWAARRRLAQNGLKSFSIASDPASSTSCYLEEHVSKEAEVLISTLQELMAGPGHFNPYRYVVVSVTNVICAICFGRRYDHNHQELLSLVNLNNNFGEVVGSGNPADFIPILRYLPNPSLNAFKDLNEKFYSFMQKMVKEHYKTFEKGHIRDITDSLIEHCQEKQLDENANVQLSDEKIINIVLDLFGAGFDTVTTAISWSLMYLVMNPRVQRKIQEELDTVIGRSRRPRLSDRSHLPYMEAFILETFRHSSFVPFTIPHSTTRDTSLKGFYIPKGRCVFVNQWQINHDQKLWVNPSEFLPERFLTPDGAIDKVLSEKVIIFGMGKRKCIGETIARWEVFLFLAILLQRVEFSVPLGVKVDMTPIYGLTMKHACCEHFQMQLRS
# CYP2A6 = molecular target: T8, CYP2A6 (Homo sapiens, UniProt P11509); assay: CYP inhibition in human liver microsomes; format: in vitro ADME
# T8 construct: In vitro studies in human liver microsomes; from tissue; host or cells: human liver microsomes
# T8 sequence (P11509 whole entry): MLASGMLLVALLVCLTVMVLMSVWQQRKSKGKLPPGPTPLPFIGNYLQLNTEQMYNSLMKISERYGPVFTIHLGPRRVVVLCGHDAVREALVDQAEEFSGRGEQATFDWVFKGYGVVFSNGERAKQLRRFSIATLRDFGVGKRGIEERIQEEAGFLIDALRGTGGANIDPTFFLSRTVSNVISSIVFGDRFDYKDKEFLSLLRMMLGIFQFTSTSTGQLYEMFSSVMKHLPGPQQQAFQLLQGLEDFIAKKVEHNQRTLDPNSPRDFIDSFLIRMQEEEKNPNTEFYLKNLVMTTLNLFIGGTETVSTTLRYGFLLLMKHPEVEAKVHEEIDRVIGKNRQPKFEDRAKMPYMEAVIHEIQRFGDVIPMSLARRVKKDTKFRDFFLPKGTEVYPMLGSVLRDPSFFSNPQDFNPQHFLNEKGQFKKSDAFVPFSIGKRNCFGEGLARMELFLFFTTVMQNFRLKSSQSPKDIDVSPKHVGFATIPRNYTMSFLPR
# CYP2B6 [15] = molecular target: T9, CYP2B6 (Homo sapiens, UniProt P20813); assay: CYP inhibition in human liver microsomes; format: in vitro ADME
# T9 construct: In vitro studies in human liver microsomes; from tissue; host or cells: human liver microsomes
# T9 sequence (P20813 whole entry): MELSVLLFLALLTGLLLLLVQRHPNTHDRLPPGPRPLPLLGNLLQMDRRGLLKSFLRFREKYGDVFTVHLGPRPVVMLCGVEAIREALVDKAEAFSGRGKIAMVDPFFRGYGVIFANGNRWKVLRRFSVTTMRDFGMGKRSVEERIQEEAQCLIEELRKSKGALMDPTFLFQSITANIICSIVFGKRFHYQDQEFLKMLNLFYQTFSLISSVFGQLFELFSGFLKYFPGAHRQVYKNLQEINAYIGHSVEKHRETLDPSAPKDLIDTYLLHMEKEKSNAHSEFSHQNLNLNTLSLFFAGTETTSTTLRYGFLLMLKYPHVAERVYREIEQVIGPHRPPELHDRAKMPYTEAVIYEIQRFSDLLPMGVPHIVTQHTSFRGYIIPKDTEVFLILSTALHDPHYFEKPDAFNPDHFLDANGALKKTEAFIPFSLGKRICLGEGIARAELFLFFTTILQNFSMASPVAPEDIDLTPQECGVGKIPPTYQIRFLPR
# [16] = tested on: Haemophilus parainfluenzae; conditions: ME patients with CABP
# [17] = Safety, four pooled controlled comparative Phase 3 studies (two cSSSI, two CABP); format: in vivo, human; conditions: pooled Phase 3 studies
# Procedure: Ceftaroline fosamil was evaluated in four controlled comparative Phase 3 clinical studies (two in cSSSI and two in CABP).
# [18] = Example 4
# Procedure: The 600-mg dose of ceftaroline fosamil infused over 60 minutes was split into two infusions in order to maintain the blind. For subjects with moderate renal impairment (30 ml/min<CrCl≦50 ml/min), as estimated by the Cockroft-Gault formula, unblinded pharmacy staff or unblinded study staff could adjust the dose of ceftaroline fosamil to two consecutive 200 mg infusions and readjust dose to two 300 mg infusions when renal function improved (CrCl>50 mL/min). The duration of treatment was between 5 to 7 days.
# (§7) All subjects who received any amount of study drug were included in the safety analysis. Safety measures included monitoring for adverse events (AE) up to TOC and serious adverse events (SAE) through LFU; recording vital signs, physical examination, electrocardiogram (ECG), and clinical laboratory findings (clinical chemistry, hematology, and urinalysis), at prespecified times throughout the study.
# [19] = Example 5
# Procedure: The 600-mg dose of ceftaroline fosamil infused over 60 minutes was split into two infusions in order to maintain the blind. For subjects with moderate renal impairment (30 mL/min<CrCl≦50 mL/min), as estimated by the Cockroft-Gault formula, unblinded pharmacy staff or unblinded study staff could adjust the dose of ceftaroline fosamil to two consecutive 200 mg infusions and readjust dose to two 300 mg infusions when renal function improved (CrCl>50 mL/min). The duration of treatment was between 5 to 7 days.
# as §7
# [20] = Safety population, listed as ceftriaxone
smiles,measurement,setting,value
"CCO/N=C(\C(=O)N[C@@H]1C(=O)N2C(C(=O)[O-])=C(Sc3nc(-c4cc[n+](C)cc4)cs3)CS[C@H]12)c1nsc(NP(=O)(O)O)n1 [Ceftaroline fosamil, (6R,7R)-7-{(2Z)-2-(ethoxyimino)-2-[5-(phosphonoamino)-1,2,4-thiadiazol-3-yl]acetamido}-3-{[4-(1-methylpyridin-1-ium-4-yl)-1,3-thiazol-2-yl]sulfanyl}-8-oxo-5-thia-1-azabicyclo[4.2.0]oct-2-ene-2-carboxylate]",Treatment Difference in clinical cure rate at TOC,[1]; CE,"6.7 (1.6, 11.8) %"
same,Treatment Difference in clinical cure rate at TOC,[1]; MITTE,"6.0 (1.4, 10.7) %"
same,Treatment Difference in clinical cure rate at TOC,[2]; CE,"8.4 (1.4, 15.4) %"
same,Treatment Difference in clinical cure rate at TOC,[2]; MITTE,"6.2 (−0.2, 12.6) %"
same,Treatment Difference in clinical cure rate at TOC,[3]; CE,"4.9 (−2.5, 12.5) %"
same,Treatment Difference in clinical cure rate at TOC,[3]; MITTE,"5.9 (−1.0, 12.7) %"
same,inhibition of CYP1A2,CYP1A2 [4],neither ceftaroline fosamil nor ceftaroline inhibits
same,inhibition of CYP2C19,CYP2C19 [5],neither ceftaroline fosamil nor ceftaroline inhibits
same,induction of CYP2C8,CYP2C8 [6],not inducers
same,inhibition of CYP2C9,CYP2C9 [7],neither ceftaroline fosamil nor ceftaroline inhibits
same,induction of CYP2C9,CYP2C9 [8],not inducers
same,solubility,Aqueous solubility,more than 200 mg per ml
same,induction of CYP2C19,CYP2C19 [9],not inducers
same,induction of CYP3A4/5,CYP3A4/5,not inducers
same,induction of CYP1A2,CYP1A2 [10],not inducers
same,inhibition of CYP2D6,CYP2D6,neither ceftaroline fosamil nor ceftaroline inhibits
same,inhibition of CYP2C8,CYP2C8 [11],neither ceftaroline fosamil nor ceftaroline inhibits
same,Treatment Difference (2-sided 95% CI),[12]; CE,"0.1 (−4.4., 4.5)"
same,Treatment Difference (2-sided 95% CI),[12]; MITT,"−0.4 (−5.8, 5.0)"
same,conversion of prodrug in plasma,[13],rapidly converted into bioactive ceftaroline in plasma
same,inhibition of CYP3A4,CYP3A4,neither ceftaroline fosamil nor ceftaroline inhibits
same,inhibition of CYP2E1,CYP2E1,neither ceftaroline fosamil nor ceftaroline inhibits
same,induction of CYP2B6,CYP2B6 [14],not inducers
same,inhibition of CYP1A1,CYP1A1,neither ceftaroline fosamil nor ceftaroline inhibits
same,inhibition of CYP2A6,CYP2A6,neither ceftaroline fosamil nor ceftaroline inhibits
same,inhibition of CYP2B6,CYP2B6 [15],neither ceftaroline fosamil nor ceftaroline inhibits
same,Clinical Cure Rate by Infecting Pathogen,[16],16/16 (100%)
same,highest incidence of any adverse reaction,[17],≤ 5%
same,hypersensitivity leading to discontinuation,[17],0.3%
"CO/N=C(\C(=O)N[C@@H]1C(=O)N2C(C(=O)O)=C(CSc3nc(=O)c(=O)[nH]n3C)CS[C@H]12)c1csc(N)n1 [Ceftriaxone, reference compound]",Per-subject Clinical Cure Rate at the EOT Visit,"[3]; MITTE population, Example 4",215 (78.8) %
same,Favorable Microbiological Outcome at the TOC Visit,"[3]; mMITTE population, Example 4",72 (81.8) %
same,TEAEs leading to premature discontinuation from study drug administration,[18],1.3%
same,"any study-drug-related TEAEs, subjects",[18],13.7%
same,study-drug-related TEAE: headache,[18],1.0%
same,"Early withdrawal from study, reason Adverse Event",[18]; MITTE population,7 (2.6) %
same,"Any AE (TEAE), subjects",[18]; Safety population,145 (47.2) %
same,"COPD, subjects",[18]; Safety population,5 (1.6) %
same,"Diarrhea, subjects",[18]; Safety population,9 (2.9) %
same,"Headache, subjects",[18]; Safety population,5 (1.6) %
same,"Hypertension, subjects",[18]; Safety population,8 (2.6) %
same,"Hypokalemia, subjects",[18]; Safety population,5 (1.6) %
same,"Insomnia, subjects",[18]; Safety population,8 (2.6) %
same,"Nausea, subjects",[18]; Safety population,6 (2.0) %
same,"Phlebitis, subjects",[18]; Safety population,8 (2.6) %
same,"Pleural effusion, subjects",[18]; Safety population,7 (2.3) %
same,"Pneumonia, subjects",[18]; Safety population,4 (1.3) %
same,"Any AE (TEAE), subjects",[18]; [20],47.2%
same,TEAEs leading to premature discontinuation from study drug administration,[19],3.9%
same,subjects with SAEs considered possibly or probably related to study drug,[19],5 subjects
same,"Early withdrawal from study, reason Adverse Event",[19]; MITTE population,7 (2.3) %
same,"Any AE (TEAE), subjects",[19]; Safety population,136 (44.2) %
same,"Constipation, subjects",[19]; Safety population,5 (1.6) %
same,"Diarrhea, subjects",[19]; Safety population,7 (2.3) %
same,"Headache, subjects",[19]; Safety population,4 (1.3) %
same,"Hypertension, subjects",[19]; Safety population,8 (2.6) %
same,"Hypokalemia, subjects",[19]; Safety population,10 (3.2) %
same,"Insomnia, subjects",[19]; Safety population,6 (1.9) %
same,"Nausea, subjects",[19]; Safety population,8 (2.6) %
same,"Phlebitis, subjects",[19]; Safety population,5 (1.6) %
same,"Any AE (TEAE), subjects",[19]; [20],44.2%
same,"Diarrhea, subjects",[19]; [20],2.3%
same,"Headache, subjects",[19]; [20],1.3%
same,Clinical Cure Rate by Infecting Pathogen,[16],15/17 (88.2%)
CCO/N=C(\C(=O)N[C@H](C(=O)[O-])[C@@H]1NC(C(=O)[O-])=C(Sc2nc(-c3cc[n+](C)cc3)cs2)CS1)c1nsc(N)n1.[H+] [ceftaroline M-1],induction of CYP2C8,CYP2C8 [6],not inducers
same,induction of CYP2C9,CYP2C9 [8],not inducers
same,induction of CYP2C19,CYP2C19 [9],not inducers
same,induction of CYP3A4/5,CYP3A4/5,not inducers
same,induction of CYP1A2,CYP1A2 [10],not inducers
same,induction of CYP2B6,CYP2B6 [14],not inducers
